Among the data in EP4428121A1, “MODULATORS OF SORTILIN ACTIVITY” (Vesper Bio Aps, priority 2023, dated 2024) are Kd values, retold here.

Structures are written as SMILES.

The test deals with T1, Human (6-His)Sortilin (Homo sapiens, UniProt Q99523).
T1 construct: purchased RnD Systems
T1 sequence (Q99523 78-755 limits assumed): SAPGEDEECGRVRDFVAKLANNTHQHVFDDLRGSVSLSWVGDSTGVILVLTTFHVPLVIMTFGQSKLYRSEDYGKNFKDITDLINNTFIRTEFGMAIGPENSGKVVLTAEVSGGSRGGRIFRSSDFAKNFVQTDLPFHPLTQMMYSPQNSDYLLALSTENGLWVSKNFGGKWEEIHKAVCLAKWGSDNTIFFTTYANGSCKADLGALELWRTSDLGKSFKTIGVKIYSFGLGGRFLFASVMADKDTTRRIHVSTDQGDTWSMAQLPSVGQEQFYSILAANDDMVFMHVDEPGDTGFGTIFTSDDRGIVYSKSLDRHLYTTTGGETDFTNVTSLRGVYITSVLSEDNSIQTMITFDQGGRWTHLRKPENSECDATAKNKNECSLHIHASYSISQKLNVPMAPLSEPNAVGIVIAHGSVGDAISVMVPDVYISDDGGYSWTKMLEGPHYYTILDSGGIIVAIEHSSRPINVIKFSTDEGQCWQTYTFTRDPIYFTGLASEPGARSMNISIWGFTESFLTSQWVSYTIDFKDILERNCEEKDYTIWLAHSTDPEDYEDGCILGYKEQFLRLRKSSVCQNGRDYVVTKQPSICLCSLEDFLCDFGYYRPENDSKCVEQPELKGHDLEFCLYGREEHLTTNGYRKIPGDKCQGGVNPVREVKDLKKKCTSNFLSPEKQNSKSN
As to the kind of experiment: Human Sortilin GCI (Grating-Coupled Interferometry) binding assay. The following applies: Creoptix WAVE-RAPID, single concentration (usually 1 µM, 10 µM or 100 µM), immobilised Human (6-His)Sortilin, 1:1 kinetic binding model.

As for `CC(C)(C)CCC(Nc1cnc2ccccc2c1)c1nn[nH]n1` (racemic) [Example 33, [4,4-dimethyl-1-(2H-tetraazol-5-yl)pentyl]-3-quinolylamine], the Kd amounted to 3.43 µM.
The figure for `CC(C)(C)CCC(Nc1ccc2ccccc2n1)c1nn[nH]n1` (racemic) [Example 34, [4,4-dimethyl-1-(2H-tetraazol-5-yl)pentyl]-2-quinolylamine] is 1.83 µM; for `CC(C)(C)CCC(Nc1cccc2ccccc12)c1nn[nH]n1` (racemic) [Example 35, [4,4-dimethyl-1-(2H-tetraazol-5-yl)pentyl]-1-naphthylamine] it is 1.07 µM; for `CC(C)CCC(Nc1cccc2ccccc12)c1nn[nH]n1` (racemic) [Example 38, [4-methyl-1-(2H-tetraazol-5-yl)pentyl]-1-naphthylamine] it is 8.75 µM.
In the case of `CC(C)CC(Nc1ccc2ccccc2n1)c1nn[nH]n1` (racemic) [Example 40, [3-methyl-1-(2H-tetraazol-5-yl)butyl]-2-quinolylamine] it was 22 µM; in that of `CC(C)CC(Nc1cc2ccccc2cn1)c1nn[nH]n1` (racemic) [Example 42, [3-methyl-1-(2H-tetraazol-5-yl)butyl]-3-isoquinolylamine], 3.17 µM.
The figure for `CC(C)(C)CC(Nc1ccccc1)c1nn[nH]n1` (racemic) [Example 43, N-phenyl[3,3-dimethyl-1-(2H-tetraazol-5-yl)butyl]amine] is 17.7 µM; for `CC(C)(C)CC(Nc1ncccn1)c1nn[nH]n1` (racemic) [Example 45, N-2-pyrimidinyl[3,3-dimethyl-1-(2H-tetraazol-5-yl)butyl]amine] it is 91.1 µM.
In turn, `CC(C)CC(Nc1cncc2ccccc12)c1nn[nH]n1` (racemic) [Example 46, [3-methyl-1-(2H-tetraazol-5-yl)butyl]-4-isoquinolylamine] gave a Kd of 3.78 µM.
In the case of `CC(C)(C)CCC(Nc1ncccn1)c1nn[nH]n1` (racemic) [Example 47, N-2-pyrimidinyl[4,4-dimethyl-1-(2H-tetraazol-5-yl)pentyl]amine], the Kd is 7.82 µM.
In the case of `CC(C)(C)CC(Nc1cncc2ccccc12)c1nn[nH]n1` (racemic) [Example 48, [3,3-dimethyl-1-(2H-tetraazol-5-yl)butyl]-4-isoquinolylamine] it was 2.47 µM; in that of `CC(C)CC(Nc1cncnc1)c1nn[nH]n1` (racemic) [Example 49, [3-methyl-1-(2H-tetraazol-5-yl)butyl]-5-pyrimidinylamine], 98 µM; in that of `CC(C)(C)CC(Nc1cncnc1)c1nn[nH]n1` (racemic) [Example 50, N-5-pyrimidinyl[3,3-dimethyl-1-(2H-tetraazol-5-yl)butyl]amine], 28 µM.
In the case of `Cn1ccc2cc(NC(CC(C)(C)C)c3nn[nH]n3)cnc21` (racemic) [Example 52, [3,3-dimethyl-1-(2H-tetraazol-5-yl)butyl](1-methyl-1H-1,7-diazainden-5-yl)amine], the Kd amounted to 3.25 µM.
The figure for `Cn1ccc2cc(NC(CCC(C)(C)C)c3nn[nH]n3)cnc21` (racemic) [Example 53, [4,4-dimethyl-1-(2H-tetraazol-5-yl)pentyl](1-methyl-1H-1,7-diazainden-5-yl)amine] is 0.735 µM; for `CC(C)CCC(Nc1cnc2ccccc2c1)c1nn[nH]n1` (racemic) [Example 55, [4-methyl-1-(2H-tetraazol-5-yl)pentyl]-3-quinolylamine] it is 10.5 µM; for `CC(C)CC(Nc1cnc2ccccc2c1)c1nn[nH]n1` (racemic) [Example 56, [3-methyl-1-(2H-tetraazol-5-yl)butyl]-3-quinolylamine] it is 44.9 µM.
The figure for `CC(C)CCC(Nc1ncccn1)c1nn[nH]n1` (racemic) [Example 57, N-2-pyrimidinyl[4-methyl-1-(2H-tetraazol-5-yl)pentyl]amine] is 123 µM.
In the case of `CC(C)(C)CC(Nc1cc2ccccc2cn1)c1nn[nH]n1` (racemic) [Example 60, [3,3-dimethyl-1-(2H-tetraazol-5-yl)butyl]-3-isoquinolylamine] it was 5.9 µM.
Molecule `CC(C)(C)CC(Nc1ccccn1)c1nn[nH]n1` (racemic) [Example 61, N-2-pyridyl[3,3-dimethyl-1-(2H-tetraazol-5-yl)butyl]amine] came in with a Kd of 60 µM.
On to `CC(C)(C)CC(Nc1cccnc1)c1nn[nH]n1` (racemic) [Example 62, N-3-pyridyl[3,3-dimethyl-1-(2H-tetraazol-5-yl)butyl]amine], for which the Kd worked out at 32.1 µM.
The figure for `CC(C)CCC(Nc1cncc2ccccc12)c1nn[nH]n1` (racemic) [Example 64, [4-methyl-1-(2H-tetraazol-5-yl)pentyl]-4-isoquinolylamine] is 8.71 µM.
For the molecule `CC(C)CC(Nc1ncccn1)c1nn[nH]n1` (racemic) [Example 65, [3-methyl-1-(2H-tetraazol-5-yl)butyl]-2-pyrimidinylamine], the affinity, expressed as Kd, was 98.6 µM.
The figure for `CC(C)CC(Nc1ccccn1)c1nn[nH]n1` (racemic) [Example 66, [3-methyl-1-(2H-tetraazol-5-yl)butyl]-2-pyridylamine] is 179 µM; for `CC(C)(C)CC(Nc1ncnc2ccccc12)c1nn[nH]n1` (racemic) [Example 77, [3,3-dimethyl-1-(2H-tetraazol-5-yl)butyl]-4-quinazolinylamine] it is 5.41 µM.
The figure for `COc1ccc2ncnc(NC(CCC(C)(C)C)c3nn[nH]n3)c2c1` (racemic) [Example 78, [4,4-dimethyl-1-(2H-tetraazol-5-yl)pentyl](6-methoxy-4-quinazolinyl)amine] is 1.49 µM.
With `COc1ccc2ncnc(NC(CCC(C)C)c3nn[nH]n3)c2c1` (racemic) [Example 79, [4-methyl-1-(2H-tetraazol-5-yl)pentyl](6-methoxy-4-quinazolinyl)amine], the Kd was 19.5 µM.
`Cc1ccc2ncnc(NC(CCC(C)C)c3nn[nH]n3)c2c1` (racemic) [Example 80, [4-methyl-1-(2H-tetraazol-5-yl)pentyl](6-methyl-4-quinazolinyl)amine] came in with a Kd of 3.88 µM.
In the case of `CC(C)CCC(Nc1ncnc2ccc(F)cc12)c1nn[nH]n1` (racemic) [Example 81, [4-methyl-1-(2H-tetraazol-5-yl)pentyl](6-fluoro-4-quinazolinyl)amine] it was 2.22 µM; in that of `CC(C)(C)CCC(Nc1ncnc2cc(F)ccc12)c1nn[nH]n1` (racemic) [Example 82, [4,4-dimethyl-1-(2H-tetraazol-5-yl)pentyl](7-fluoro-4-quinazolinyl)amine], 0.316 µM.
In turn, `Cc1ccc2ncnc(NC(CCC(C)(C)C)c3nn[nH]n3)c2c1` (racemic) [Example 83, [4,4-dimethyl-1-(2H-tetraazol-5-yl)pentyl](6-methyl-4-quinazolinyl)amine] returned a Kd of 0.251 µM.
The molecule `Cc1ccc2c(NC(CCC(C)(C)C)c3nn[nH]n3)ncnc2c1` (racemic) [Example 84, [4,4-dimethyl-1-(2H-tetraazol-5-yl)pentyl](7-methyl-4-quinazolinyl)amine] showed a Kd of 0.461 µM.
In the case of `CC(C)(C)CCC(Nc1ncnc2ccc(C(F)(F)F)cc12)c1nn[nH]n1` (racemic) [Example 86, [4,4-dimethyl-1-(2H-tetraazol-5-yl)pentyl][6-(trifluoromethyl)-4-quinazolinyl]amine] it was 1.49 µM; in that of `CC(C)(C)CCC(Nc1ncnc2cnccc12)c1nn[nH]n1` (racemic) [Example 88, [4,4-dimethyl-1-(2H-tetraazol-5-yl)pentyl]-1,3,7-triaza-4-naphthylamine], 0.426 µM.
In the case of `CC(C)(C)CCC(Nc1ncnc2cc(Br)ccc12)c1nn[nH]n1` (racemic) [Example 90, [4,4-dimethyl-1-(2H-tetraazol-5-yl)pentyl](7-bromo-4-quinazolinyl)amine] it was 0.284 µM; in that of `CC(C)CCC(Nc1ncnc2ccccc12)c1nnn[nH]1` (racemic) [Example 101, N-(4-methyl-1-(1H-tetrazol-5-yl)pentyl)quinazolin-4-amine], 18.3 µM; in that of `CC(C)CC(Nc1ncnc2ccccc12)c1nn[nH]n1` (racemic) [Example 103, [3-methyl-1-(2H-tetraazol-5-yl)butyl]-4-quinazolinylamine], 25.5 µM.
In turn, `CC(C)CC(Nc1ccncc1)c1nnn[nH]1` (racemic) [Example 104, N-(3-methyl-1-(1H-tetrazol-5-yl)butyl)pyridin-4-amine] registered a Kd of 74.2 µM.
The molecule `CC(C)CC(Nc1ccncn1)c1nn[nH]n1` (racemic) [Example 105, [3-methyl-1-(2H-tetraazol-5-yl)butyl]-4-pyrimidinylamine] displayed a Kd of 187 µM.
In the case of `CC(C)(C)CC[C@@H](Nc1ccc2ccccc2n1)c1nn[nH]n1` (single isomer, unassigned) [Example 95] it was 6.07 µM; in that of `CC(C)(C)CC[C@H](Nc1ccc2ccccc2n1)c1nn[nH]n1` (single isomer, unassigned) [Example 96], 0.912 µM.
Take `CC(C)(C)CC[C@H](Nc1cccnc1)c1nn[nH]n1` (single isomer, unassigned) [Example 99]: the Kd was found to be 1.56 µM.

Broadly, the Kd is the concentration at which binding is half-saturated. Lower therefore signals higher affinity.
